Entries after “also recorded” stand apart in the source; their conditions may differ.
Tests used:
5-HT2A receptor = 5-HT2A receptor (Mus musculus, UniProt P35363); assay: head-twitch response; format: in vivo, C57BL/6 mice; conditions: mice, 1 mg/kg p.o.; for HTR induction, result in words: 15–30 min window
[1] = system: mice subjected to a Mild Chronic Stress Paradigm (MCSP); assay: marble-burying test; format: in vivo, C57BL/6 mice; conditions: for marble-burying behavior in stressed mice, 1 day postdose, in words / marble-burying behavior in stressed mice, up to 7 days, in words: MCSP mice, single p.o. dose, psilocybin 1 mg/kg, NPDs 10 mg/kg
[2] = plasma pharmacokinetics of psilocin and parent prodrug in healthy mice; conditions: for psilocin AUC(0–tlast) relative to ES02: 10 mg/kg p.o., within first 8 h; for time up to which parent derivative is detected systemically postdose: plasma parent prodrug
[3] = humans; cited from earlier work
[4] = human participants, 25 mg psilocybin; cited from earlier work

Sequence of 5-HT2A receptor (P35363 whole entry): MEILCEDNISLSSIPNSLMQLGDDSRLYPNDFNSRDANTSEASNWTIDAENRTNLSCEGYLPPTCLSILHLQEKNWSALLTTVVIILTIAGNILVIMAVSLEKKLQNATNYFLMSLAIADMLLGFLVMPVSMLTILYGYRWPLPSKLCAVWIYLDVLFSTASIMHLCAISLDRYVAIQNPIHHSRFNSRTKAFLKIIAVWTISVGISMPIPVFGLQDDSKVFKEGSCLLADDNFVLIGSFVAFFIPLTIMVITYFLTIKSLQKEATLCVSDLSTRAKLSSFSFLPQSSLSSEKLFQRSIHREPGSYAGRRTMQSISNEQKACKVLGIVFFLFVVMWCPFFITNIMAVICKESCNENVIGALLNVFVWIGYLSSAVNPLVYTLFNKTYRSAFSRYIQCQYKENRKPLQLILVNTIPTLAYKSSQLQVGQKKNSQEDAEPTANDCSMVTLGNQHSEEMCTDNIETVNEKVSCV

## CN(C)CCc1cn(C(=O)OCc2ccccc2)c2cccc(OC(=O)OCc3ccccc3)c12 [C01, Benzyl 4-(((Benzyloxy)carbonyl)oxy)-3-(2-(dimethylamino)ethyl)-1H-indole-1-carboxylate]
5-HT2A receptor
  HTR induction, result in words: ineffective in inducing HTR

## CN(C)CCc1c[nH]c2cccc(OC(=O)OCc3ccccc3)c12 [C02, Benzyl (3-(2-(Dimethylamino)ethyl)-1H-indol-4-yl) Carbonate]
5-HT2A receptor
  HTR induction, result in words: statistically significant psychomimetic effects in healthy mice

## CN(C)CCc1c[nH]c2cccc(OC(=O)OCC3CC3)c12 [C03, Cyclopropylmethyl (3-(2-(Dimethylamino)ethyl)-1H-indol-4-yl) Carbonate]
5-HT2A receptor
  HTR induction, result in words: appeared not to induce a notable hallucinogenic effect

## CCCC(=O)OCOc1cccc2[nH]cc(CCN(C)C)c12 [EE01, ((3-(2-(Dimethylamino)ethyl)-1H-indol-4-yl)oxy)methyl Butyrate]
5-HT2A receptor
  HTR induction, result in words: appeared not to induce a notable hallucinogenic effect

## COc1ccc(C(=O)Oc2cccc3[nH]cc(CCN(C)C)c23)cc1 [ES01, 3-(2-(Dimethylamino)ethyl)-1H-indol-4-yl 4-Methoxybenzoate]
[1]
  marble-burying behavior in stressed mice, 1 day postdose, in words: significant reduction in marble-burying behavior
  marble-burying behavior in stressed mice, up to 7 days, in words: completely rescuing the elevated anxiety-like condition to the innate behavioral state up to 7 days after treatment
[2]
  psilocin AUC(0–tlast) relative to ES02: greater than twice that of ES02
5-HT2A receptor; 1 mg/kg
  HTR induction, result in words: induced HTR at an intensity statistically equivalent to the natural psychedelic compound; also recorded: produced HTR responses equivalent to psilocybin

## CN(C)CCc1c[nH]c2cccc(OC(=O)CC3CC3)c12 [ES02, 3-(2-(Dimethylamino)ethyl)-1H-indol-4-yl 2-cyclopropylacetate]
[1]
  marble-burying behavior in stressed mice, 1 day postdose, in words: significant reduction in marble-burying behavior
5-HT2A receptor
  HTR induction, result in words: induced HTR at an intensity statistically equivalent to the natural psychedelic compound

## CN(C)CCc1c[nH]c2cccc(OC(=O)c3c(F)c(F)c(F)c(F)c3F)c12 [ES03, 3-(2-(Dimethylamino)ethyl)-1H-indol-4-yl 2,3,4,5,6-pentafluorobenzoate]
5-HT2A receptor; 1 mg/kg
  HTR induction, result in words: induced HTR at an intensity statistically equivalent to the natural psychedelic compound; also recorded: produced HTR responses equivalent to psilocybin

## CN(C)CCc1c[nH]c2cccc(OC(=O)c3cccc4c3OCCO4)c12 [ES04, 3-(2-(Dimethylamino)ethyl)-1H-indol-4-yl 2,3-dihydrobenzo[b][1,4]dioxine-5-carboxylate]
5-HT2A receptor
  HTR induction, result in words: appeared not to induce a notable hallucinogenic effect

## CN(C)CCc1c[nH]c2cccc(OP(=O)(O)O)c12 [PCB, psilocybin, reference compound]
[3]
  duration of psychedelic episode from time of dosing: up to 6 h
[4]
  duration of systemic psilocin exposure postadministration: up to 24 h
  time of peak plasma psilocin level: 2 h
[1]
  marble-burying behavior in stressed mice, 1 day postdose, in words: significantly reduced number of buried marbles
  marble-burying behavior in stressed mice, up to 7 days, in words: long-term benefits lasting up to 7 days post-treatment
[1]; nonstressed mice, 1 mg/kg p.o.
  effect on innate burying behavior in nonstressed mice: no significant effect on the innate burying behavior in nonstressed mice
5-HT2A receptor
  duration of statistically enhanced HTR relative to vehicle: up to 90 min
  observation window of peak HTR intensity: 15 to 30 min

## CN(C)CCc1c[nH]c2cccc(O[Si](C)(C)C(C)(C)C)c12 [SE01, 2-(4-((tert-Butyldimethylsilyl)oxy)-1H-indol-3-yl)-N,N-dimethylethanamine]
[2]
  time up to which parent derivative is detected systemically postdose: up to 8 h
5-HT2A receptor
  HTR induction, result in words: induced notable HTR

## CC(C)[Si](Oc1cccc2[nH]cc(CCN(C)C)c12)(C(C)C)C(C)C [SE02, N,N-Dimethyl-2-(4-((triisopropylsilyl)oxy)-1H-indol-3-yl)ethanamine]
[2]
  time up to which parent derivative is detected systemically postdose: up to 8 h
5-HT2A receptor
  HTR induction, result in words: induced notable HTR

## CN(C)CCc1c[nH]c2cccc(OC(=O)SCc3ccccc3)c12 [T01, S-Benzyl O-(3-(2-(Dimethylamino)ethyl)-1H-indol-4-yl) Carbonothioate]
[1]
  marble-burying behavior in stressed mice, 1 day postdose, in words: significant reduction in marble-burying behavior
  marble-burying behavior in stressed mice, up to 7 days, in words: completely rescuing the elevated anxiety-like condition to the innate behavioral state up to 7 days after treatment
[2]; 1 mg/kg i.v., 1 mg/kg
  psilocin (Cmax) produced relative to psilocybin: three to five times greater than psilocybin; also recorded: approximately four times greater psilocin relative to the natural prodrug
[2]
  psilocin AUC(0–tlast) relative to ES02: greater than twice that of ES02
5-HT2A receptor; 1 mg/kg
  HTR induction, result in words: induced notable HTR; also recorded: statistically significant psychomimetic effects in healthy mice
